{"source": "patent US20160251402A1", "about": "“MICROPEPTIDES AND USE OF SAME FOR MODULATING GENE EXPRESSION” (UNIVERSITE PAUL SABATIER TOULOUSE III, priority 2013, published 2016)", "molecules": {"B1": {"name": "MEPGFVFVLFPTHLSTQHTQREKSILVMGLNLQSAKQSDKQNSKERKKNTQINSQRIPYRQGGQCSKVLSP (peptide)", "chain": "MEPGFVFVLFPTHLSTQHTQREKSILVMGLNLQSAKQSDKQNSKERKKNTQINSQRIPYRQGGQCSKVLSP", "modifications": "Drosophila melanogaster"}}, "key": {"AtmiR319a [1]": {"test_system": "AtmiR319a", "experiment": "Accumulation of AtmiR319a in the model plant of tobacco", "assay_type": "in vivo, Nicotiana benthamiana", "settings": "tobacco expressing AtmiR319a, overexpression of AtmiORF319a", "procedure": "(§1) At present, AtmiPEP165a and AtmiPEP319a2, identified in Arabidopsis thaliana, have already been characterized.\n(§2) The total RNA was extracted from roots of M. truncatula or from tobacco leaves using the extraction kit RNeasy Plant Mini Kit (Qiagen). The reverse transcription was performed using the reverse transcriptase SuperScript II (Invitrogen) starting from 500 ng of total RNA. Three repetitions (n=3) were carried out, each with two technical repetitions. Each experiment was repeated from two to three times. The amplifications by qPCR were carried out using a LightCycler 480 System thermocycler (Roche Diagnostics) by the method described in Lauressergues et al. (Plant J., 72(3): 512-22, 2012).\n(§3) For the miPEPs 165a and 319a, the corresponding miORFs were cloned into pBIN19 by the method described in Combier et al. (Genes & Dev, 22: 1549-1559, 2008).\n(§4) The composite plants having roots transformed with Agrobacterium rhizogenes were obtained by the method described in Boisson-Dernier et al. (Mol Plant-Microbe Interact, 18: 1269-1276, 2005). The transformed roots were verified and selected by observations of DsRED with a binocular fluorescence magnifier. The control roots correspond to roots transformed with A. rhizogenes not containing the pPEX-DsRED vector. Transformation of the tobacco leaves was carried out by the method described in Combier et al. (Genes & Dev, 22: 1549-1559, 2008)."}, "AtmiR160b": {"test_system": "AtmiR160b", "experiment": "Relative expression of AtmiR160b in A. thaliana", "assay_type": "in vivo, Arabidopsis thaliana", "settings": "plant in which AtmiPEP160b1 is overexpressed vs control plant"}, "MtmiR171e": {"test_system": "MtmiR171e", "experiment": "Relative expression of MtmiR171e in M. truncatula", "assay_type": "in vivo, Medicago truncatula", "settings": "plant in which MtmiPEP171e is overexpressed vs control plant", "procedure": "as §2, §4"}, "AtmiR319a [2]": {"test_system": "AtmiR319a", "experiment": "Relative expression of AtmiR319a in A. thaliana (qRT-PCR)", "assay_type": "in vivo, Arabidopsis thaliana", "settings": "plant in which AtmiPEP319a1 is overexpressed vs control plant"}, "Arabidopsis thaliana": {"test_system": "Arabidopsis thaliana", "experiment": "Plant growth of Arabidopsis thaliana after 3 weeks of watering", "assay_type": "in vivo", "settings": "watered with 0.1 μM of synthetic peptide, 3 weeks of growth, vs water"}, "AtmiR164a [3]": {"test_system": "AtmiR164a", "experiment": "Relative expression of AtmiR164a in A. thaliana (qRT-PCR)", "assay_type": "in vivo, Arabidopsis thaliana", "settings": "plant watered once a day with peptide at 0.1 μM vs control plant"}, "AtmiR164a [4]": {"test_system": "AtmiR164a", "experiment": "Northern blot of AtmiR164a in A. thaliana roots", "assay_type": "in vivo, Arabidopsis thaliana", "settings": "0.1 μM synthetic peptide dissolved in water vs water; U6 loading control", "procedure": "Northern blot analysis was carried out according to the protocol described in Lauressergues et al. Plant J., 72(3): 512-22, 2012.\nThe biological samples were homogenized in a buffer containing 0.1 M of NaCl, 2% of SDS, 50 mM of Tris-HCl (pH 9), 10 mM of EDTA (pH 8) and 20 mM of mercaptoethanol, and the RNA was extracted twice with a phenol/chloroform mixture and was precipitated with ethanol.\nThe RNA was loaded on PAGE 15% gel and transferred to a nylon membrane (HybondNX, Amersham). RNA was hybridized with a radioactive oligonucleotide probe labelled at its end, in order to detect the RNA U6 or for miR164a.\nThe hybridizations were carried out at 55° C. The hybridization signals were quantified using a phosphorimager (Fuji) and normalized with the signal of the specific probe of RNA U6."}, "PHABOLUSA: PHB": {"test_system": "PHABOLUSA: PHB", "experiment": "Expression of PHABOLUSA (PHB) in roots of A. thaliana", "assay_type": "in vivo, Arabidopsis thaliana", "settings": "roots treated with 0.01, 0.1, 1 or 10 μM peptide vs water"}, "PHAVOLUTA: PHV": {"test_system": "PHAVOLUTA: PHV", "experiment": "Expression of PHAVOLUTA (PHV) in roots of A. thaliana", "assay_type": "in vivo, Arabidopsis thaliana", "settings": "roots treated with 0.01, 0.1, 1 or 10 μM peptide vs water"}, "REVOLUTA: REV": {"test_system": "REVOLUTA: REV", "experiment": "Expression of REVOLUTA (REV) in roots of A. thaliana", "assay_type": "in vivo, Arabidopsis thaliana", "settings": "roots treated with 0.01, 0.1, 1 or 10 μM peptide vs water"}, "pri-miR165a [5]": {"test_system": "pri-miR165a", "experiment": "RNA stability of pri-miR165a in the presence of cordycepin", "assay_type": "in vivo, Arabidopsis thaliana", "settings": "in the presence of cordycepin (inhibitor of RNA synthesis), peptide at 10 μM", "procedure": "For each condition, two week old plants that have been cultivated vertically on solid MS medium have been transferred in 6-well plates containing 1 ml of liquid MS medium. […] Each indivual experiment has been made 3 times."}, "pri-miR165a [6]": {"test_system": "pri-miR165a", "experiment": "Relative expression of pri-miR165a in A. thaliana (Col-0 and nrpb2-3)", "assay_type": "in vivo, Arabidopsis thaliana", "description": "Moreover, to determinate the mode of action of miPEPs regarding the accumulation of their own miRs, the expression of pri-miR165a has been analysed in wildtype plants and in plants that have been transformed to overexpress miPEP165a (FIG. 35).\nMoreover, the expression of pri-miR165a has been analysed in wildtype plants (Col-0 plants) and in mutated plants having a low allele of the second large subunit of RNA polymerase II (nrpb2-3 plants). […] It appears that the miPEP operates as a transcription regulator.\nas §2"}, "AtmiR165a [7]": {"test_system": "AtmiR165a", "experiment": "Accumulation of AtmiR165a in the model plant of tobacco", "assay_type": "in vivo, Nicotiana benthamiana", "settings": "tobacco expressing AtmiR165a, overexpression of AtmiORF165a", "procedure": "as §1, §2, §3, §4"}, "AtmiR165a [8]": {"test_system": "AtmiR165a", "experiment": "Accumulation of AtmiR165a in roots of A. thaliana (relative expression)", "assay_type": "in vivo, Arabidopsis thaliana", "settings": "roots treated with 0.01, 0.1, 1 or 10 μM peptide vs water"}, "AtmiR165a [9]": {"test_system": "AtmiR165a", "experiment": "Northern blot of AtmiR165a in A. thaliana roots", "assay_type": "in vivo, Arabidopsis thaliana", "settings": "0.1 μM synthetic peptide dissolved in water vs water; U6 loading control"}, "[10]": {"test_system": "Arabidopsis thaliana root growth", "experiment": "Root growth in Arabidopsis thaliana", "assay_type": "in vivo", "settings": "plant treated with AtmiPEP165a vs control plant of the same age"}, "MtmiR169d": {"test_system": "MtmiR169d", "experiment": "Relative expression of MtmiR169d in M. truncatula", "assay_type": "in vivo, Medicago truncatula", "procedure": "as §2"}, "DmmiR8": {"test_system": "DmmiR8", "experiment": "Relative expression of Pre-miR8 in transfected Drosophila melanogaster cells", "assay_type": "cell-based", "procedure": "S2 cells are cultured in a T75 flask in 12 mL of Schneider's medium (GIBCO), containing 1% of penicillin 100 U/mL and […] (Sigma) and 10% of decomplemented foetal calf serum (30 min at 56° C.). The transient transfections are carried out using the FuGENE® HD transfection kit (Roche), according to the recommendations. Conventionally, 1.5 million S2 cells, previously seeded in 6-well plates (3 ml of medium per well), are transfected with 250 ng of total plasmid DNA. The DNA is brought into contact with the Fugene (3 μl) in 100 μl of OPTIMEM (GIBCO). After 20 minutes, the transfection reagent formed is brought into contact with the cells in the culture medium. The RNA of the cells is extracted 66 h after transfection."}}, "note": "“Also recorded” adds a separate entry of the source.", "data": [{"molecule": "MFQTLYLFIYIHTNILLLS (listed as Arabidopsis thaliana) [AtmiPEP319a2]", "values": [{"measurement": "accumulation of AtmiR319a", "setting": "AtmiR319a [1]", "result": "increase in the accumulation"}]}, {"molecule": "MFSPQ (listed as Arabidopsis thaliana) [AtmiPEP160b1]", "values": [{"measurement": "relative expression of AtmiR160b", "setting": "AtmiR160b", "result": "increase in the relative expression of AtmiR160b; also recorded: induces an accumulation of AtmiR160b"}]}, {"molecule": "MMVFGKPKKAMLVRFNPKTDLHV (listed as Medicago truncatula) [MtmiPEP171e]", "values": [{"measurement": "relative expression of MtmiR171e", "setting": "MtmiR171e", "result": "increase in the relative expression of MtmiR171e; also recorded: induces an accumulation of MtmiR171e"}]}, {"molecule": "MNIHTYHHLLFPSLVFHQSSDVPNALSLHIHTYEYIIVVIDPFRITLAFR [AtmiPEP319a1]", "values": [{"measurement": "relative expression of AtmiR319a", "setting": "AtmiR319a [2]", "result": "increase in the accumulation of AtmiR319a; also recorded: increase in the relative expression of AtmiR319a; also recorded: increase in the accumulation of miR319a"}, {"measurement": "plant growth", "setting": "Arabidopsis thaliana", "result": "increases plant growth significantly"}]}, {"molecule": "MPSWHGMVLLPYVKHTHASTHTHTHNIYGCACELVFH [AtmiPEP164a1]", "values": [{"measurement": "plant growth", "setting": "Arabidopsis thaliana", "result": "increases plant growth significantly"}, {"measurement": "relative expression of AtmiR164a", "setting": "AtmiR164a [3]", "result": "increase in the relative expression of AtmiR164a"}, {"measurement": "accumulation of AtmiR164a (Northern blot)", "setting": "AtmiR164a [4]", "result": "increase in the accumulation of miR164a"}]}, {"molecule": "MRVKLFQLRGMLSGSRIL (listed as Arabidopsis thaliana) [AtmiPEP165a]", "values": [{"measurement": "relative expression of PHB", "setting": "PHABOLUSA: PHB", "result": "negative regulation of its target genes"}, {"measurement": "relative expression of PHV", "setting": "PHAVOLUTA: PHV", "result": "negative regulation of its target genes"}, {"measurement": "relative expression of REV", "setting": "REVOLUTA: REV", "result": "negative regulation of its target genes"}, {"measurement": "stability of pri-miR165a", "setting": "pri-miR165a [5]", "result": "does not induce a better stability of pri-miR165a"}, {"measurement": "stability of pri-miR165a", "setting": "pri-miR165a [5]; listed as miPEP165a", "result": "does not operate as a RNA stabilizer, but rather as a transcription activator of pri-miR165a"}, {"measurement": "relative expression of pri-miR165a", "setting": "pri-miR165a [6]; nrpb2-3 mutated plants vs wildtype (Col-0), water or peptide at 10 μM", "result": "not capable of accumulating AtmiR165a in response to AtmiPEP165a"}, {"measurement": "relative expression of pri-miR165a", "setting": "pri-miR165a [6]; nrpb2-3 mutated plants vs wildtype (Col-0), water or peptide at 10 μM, listed as miPEP165a", "result": "mutated plants do not show an increase in the accumulation of pri-miR165 in response to miPEP165a"}, {"measurement": "expression of pri-miR165a", "setting": "pri-miR165a [6]; plants that overexpress miPEP165a vs wildtype plants", "result": "enhanced"}, {"measurement": "relative expression of pri-miR165a", "setting": "pri-miR165a [6]; roots watered once a day with peptide at 10 μM vs control roots", "result": "increase in the relative expression of AtmiR165a"}, {"measurement": "accumulation of AtmiR165a", "setting": "AtmiR165a [7]", "result": "increase in the accumulation"}, {"measurement": "relative expression of AtmiR165a", "setting": "AtmiR165a [8]", "result": "dose-dependent effect of the accumulation of AtmiR165a"}, {"measurement": "relative expression of AtmiR165a", "setting": "AtmiR165a [8]; listed as miPEP165a", "result": "dose-dependent effect on the accumulation of miR165a"}, {"measurement": "accumulation of AtmiR165a (Northern blot)", "setting": "AtmiR165a [9]", "result": "increase in the accumulation of miR165a"}, {"measurement": "root growth phenotype", "setting": "[10]", "result": "greatly accelerated root growth"}]}, {"molecule": "MVKESFMERLKVR (listed as Medicago truncatula) [MtmiPEP169d]", "values": [{"measurement": "accumulation of MtmiR169d", "setting": "MtmiR169d; overexpression of the miPEP in M. truncatula (as worded in Example 1B)", "result": "induces an accumulation of MtmiR169d"}, {"measurement": "relative expression of MtmiR169d", "setting": "MtmiR169d; plant watered once a day with peptide at 0.1 μM vs control plant", "result": "increase in the relative expression of MtmiR169d"}]}, {"molecule": "B1", "values": [{"measurement": "relative expression of Pre-miR8", "setting": "DmmiR8; cells overexpressing DmmiPEP8 vs miPEP8 with mutated start codons", "result": "increases the expression of DmmiR8"}, {"measurement": "relative expression of Pre-miR8", "setting": "DmmiR8; cells overexpressing wild-type DmmiR8 vs DmmiR8 with mutated miPEP8 start codons", "result": "increases the expression of DmmiR8"}]}]}
